Measurements as given in patent US5504084A, “Pharmaceutical for the treatment of skin disorders” (priority 1994, dated 1996).

Legend:
[1] = tested on: Normal human epidermal keratinocytes (NHEK); test: Inhibition of NHEK proliferation, BrdU incorporation (in vitro DNA synthesis); type: cell-based; settings: 18-24 hours; for inhibition at 100 µM: 10^-4 M; for inhibition at 10 µM: 10^-5 M
Procedure: Cells: Normal human epidermal keratinocytes (NHEK, Clonetics Corp., San Diego, Calif.).
Labelling Reagent: Aqueous solution of 5-bromo-2'-deoxyuridine and 5-fluoro-2'-deoxyuridine (Amersham Corp., II).
Peroxidase-anti-mouse Immunoglobulin (Ig from pooled sheep antisera, Amersham Corp., II).
Peroxidase substrate: ABTS (2,2'-azino-di-(3-ethyl-benzthiazoline sulphonate)! Amersham Corp., II).
Compounds: Compounds are dissolved in absolute ethanol (final concentration≤0.1%). Various drug concentrations are prepared in thymidine free keratinocyte growth medium (KGM without hydrocortisone, Clonetics Corp., Calif.) in the presence of BrdU.
Dynatech MR 7000 microplate reader with 410 nm filter.
Keratinocytes are seeded into 96-well flat bottom (6.4 mm diameter) culture dishes at 5,000 cells/well. The cells are allowed to grow (2-3days) and then dosed with various concentrations of compounds prepared in KGM without thymidine, without hydrocortisone in the presence of BrdU (1:200). After 18-24 hours at 37° C., 5% CO2, the cells are washed with warm PBS and fixed with acetic acid/ethanol for 30 minutes at room temperature. After washing the wells with PBS/0.1% Tween-20, the remaining electrostatic sites on the polystyrene plates are blocked by 3% BSA in PBS/0.1% Tween-20. Anti-bromodeoxyuridine antibody solution with nuclease for denaturing DNA is added to each well and allowed to incubate for 2 hours at 37° C., 5% CO2. The plates were again washed with PBS/0.1% Tween-20 and then incubated at room temperature with peroxidase lined anti-mouse immunoglobulin (1:600). After washing off the second antibody, 1 mM ABTS substrate solution is added to all wells until the desired color intensity (green) is achieved. The color development is stopped by the addition of a Stopping Agent. The absorbance is then measured at 410 nm with a microplate reader using cells in wells not exposed to BrdU as blanks.
The intensity of the color reaction is proportional to the BrdU incorporated by proliferating cells. The amount of BrdU incorporated in treated cells in wells is compared to those of untreated controls as follows: [formula]

[2] = European Patent 13,376; cited from earlier work
[3] = Acute toxicity after intraperitoneal administration, NMRI mouse; settings: in vivo, ip, 3 weeks, Litchfield and Wilcox
Procedure: The acute toxicity after intraperitoneal administration of the test substances was determined with NMRI mice (20 to 25 g) and SD rats (120 to 195 g). The test substance was suspended in a 1% strength sodium carboxymethylcellulose solution. The different dosages of the test substance were administered to the mice in a volume of 10 ml/kg of body weight and to the rats in a volume of 5 ml/kg of body weight. Per dosage, 10 animals were used. After 3 weeks, the acute toxicity was determined by the method of Litchfield and Wilcox.

[4] = tested on: psoriasis patients; settings: cited from earlier work

`Cc1oncc1C(=O)Nc1ccc(C(F)(F)F)cc1` [Compound 1, N-(4-trifluoromethylphenyl)-5-methylisoxazole-4-carboxamide] gave an inhibition at 100 µM [1] of 87%, an inhibition at 10 µM [1] of 22% and an inhibition at 1 µM ([1]; 10^-6 M) of 12%. The IC50 [1] was 18 µM and the anti-inflammatory property [2] was “anti-inflammatory”.

For `C/C(O)=C(\C#N)C(=O)Nc1ccc(C(F)(F)F)cc1` [Compound 2, N-(4-trifluoromethylphenyl)-2-cyano-3-hydroxycrotonamide], the LD50 at 504 h [3] was 150 mg/kg, the inhibition at 100 µM [1] was 84% and the inhibition at 10 µM [1] was 49%. It also gave an IC50 [1] of 15.5 µM.

For cyclosporine A, the “most limiting side effect” value ([4]; in vivo, po) is listed as “kidney dysfunction”, the side effects ([4]; in vivo, po) is listed as “a number of side effects, most of which are transient and not serious” and the “success rate in severe psoriasis” value ([4]; oral, patients with severe psoriasis) is listed as “high success rate”.
